From PubChem BioAssay AID1963980 (Molecular Pharmacology Branch, DTP, NCI, 2024)

Tested on: 475296-252-R-J1-PDC spheroid viability
Experiment: Anticancer human tumor 475296-252-R-J1-PDC patient-derived rectal carcinoma cell line growth inhibition [PI3K]
Settings: second compound 0.1 µM; first compound 1 µM; hits give low values; spheroids with HUVEC and MSC
In short: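 Tumor cells grown as multi-cell spheroids with HUVEC endothelial cells and MSC fibroblast-like stroma were treated with targeted agents combined with inavolisib, alpelisib, duvelisib or copanlisib. Doses fell in half-log steps from near clinical Cmax, else from 10 microM. Viability was measured.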
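Note: spheroids exposed to agents for seven days before readout.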

Compound	viability, T/C [%]
Cn1ncc(Cl)c1-c1cc(C(=O)NC(CN)Cc2cccc(F)c2)sc1Cl (configuration not stated) + Cc1nc(NC(=O)N2CCCC2C(N)=O)sc1-c1ccnc(C(C)(C)C(F)(F)F)c1	54
Cn1nccc1Nc1nccc(-c2ccn(C(CO)c3ccc(Cl)c(F)c3)c(=O)c2)n1 (configuration not stated) + Cc1nc(NC(=O)N2CCCC2C(N)=O)sc1-c1ccnc(C(C)(C)C(F)(F)F)c1	91.4

Same assay, conditions: second compound 0.1 µM; first compound 3.16 µM; hits give low values; spheroids with HUVEC and MSC

Compound	viability, T/C [%]
C#Cc1c(F)ccc2cc(O)cc(-c3ncc4c(N5CC6CCC(C5)N6)nc(OCC56CCCN5CC(F)C6)nc4c3F)c12 (configuration not stated) + Cc1nc(NC(=O)N2CCCC2C(N)=O)sc1-c1ccnc(C(C)(C)C(F)(F)F)c1	66.9
C=CC(=O)N1CCN(c2nc(=O)n(-c3c(C)ccnc3C(C)C)c3nc(-c4c(O)cccc4F)c(F)cc23)C(C)C1 (configuration not stated) + Cc1nc(NC(=O)N2CCCC2C(N)=O)sc1-c1ccnc(C(C)(C)C(F)(F)F)c1	104
CC(Cn1ccc(-c2ccc(C#N)c(Cl)c2)n1)NC(=O)c1cc(C(C)O)[nH]n1 (configuration not stated) + Cc1nc(NC(=O)N2CCCC2C(N)=O)sc1-c1ccnc(C(C)(C)C(F)(F)F)c1	120
Cn1ncc(Cl)c1-c1cc(C(=O)NC(CN)Cc2cccc(F)c2)sc1Cl (configuration not stated) + Cc1nc(NC(=O)N2CCCC2C(N)=O)sc1-c1ccnc(C(C)(C)C(F)(F)F)c1	64.4
Cn1nccc1Nc1nccc(-c2ccn(C(CO)c3ccc(Cl)c(F)c3)c(=O)c2)n1 (configuration not stated) + Cc1nc(NC(=O)N2CCCC2C(N)=O)sc1-c1ccnc(C(C)(C)C(F)(F)F)c1	99.6

Same assay, conditions: second compound 0.1 µM; first compound 10 µM; hits give low values; spheroids with HUVEC and MSC

Compound	viability, T/C [%]
C#Cc1c(F)ccc2cc(O)cc(-c3ncc4c(N5CC6CCC(C5)N6)nc(OCC56CCCN5CC(F)C6)nc4c3F)c12 (configuration not stated) + Cc1nc(NC(=O)N2CCCC2C(N)=O)sc1-c1ccnc(C(C)(C)C(F)(F)F)c1	59
C=CC(=O)N1CCN(c2nc(=O)n(-c3c(C)ccnc3C(C)C)c3nc(-c4c(O)cccc4F)c(F)cc23)C(C)C1 (configuration not stated) + Cc1nc(NC(=O)N2CCCC2C(N)=O)sc1-c1ccnc(C(C)(C)C(F)(F)F)c1	108
CC(Cn1ccc(-c2ccc(C#N)c(Cl)c2)n1)NC(=O)c1cc(C(C)O)[nH]n1 (configuration not stated) + Cc1nc(NC(=O)N2CCCC2C(N)=O)sc1-c1ccnc(C(C)(C)C(F)(F)F)c1	112
Cn1ncc(Cl)c1-c1cc(C(=O)NC(CN)Cc2cccc(F)c2)sc1Cl (configuration not stated) + Cc1nc(NC(=O)N2CCCC2C(N)=O)sc1-c1ccnc(C(C)(C)C(F)(F)F)c1	67.4
Cn1nccc1Nc1nccc(-c2ccn(C(CO)c3ccc(Cl)c(F)c3)c(=O)c2)n1 (configuration not stated) + Cc1nc(NC(=O)N2CCCC2C(N)=O)sc1-c1ccnc(C(C)(C)C(F)(F)F)c1	75.9

Same assay, conditions: second compound 0.316 µM; first compound 0.0316 µM; hits give low values; spheroids with HUVEC and MSC

Compound	viability, T/C [%]
C#Cc1c(F)ccc2cc(O)cc(-c3ncc4c(N5CC6CCC(C5)N6)nc(OCC56CCCN5CC(F)C6)nc4c3F)c12 (configuration not stated) + Cc1nc(NC(=O)N2CCCC2C(N)=O)sc1-c1ccnc(C(C)(C)C(F)(F)F)c1	80.2
C=CC(=O)N1CCN(c2nc(=O)n(-c3c(C)ccnc3C(C)C)c3nc(-c4c(O)cccc4F)c(F)cc23)C(C)C1 (configuration not stated) + Cc1nc(NC(=O)N2CCCC2C(N)=O)sc1-c1ccnc(C(C)(C)C(F)(F)F)c1	90.4
CC(Cn1ccc(-c2ccc(C#N)c(Cl)c2)n1)NC(=O)c1cc(C(C)O)[nH]n1 (configuration not stated) + Cc1nc(NC(=O)N2CCCC2C(N)=O)sc1-c1ccnc(C(C)(C)C(F)(F)F)c1	93.1
Cn1ncc(Cl)c1-c1cc(C(=O)NC(CN)Cc2cccc(F)c2)sc1Cl (configuration not stated) + Cc1nc(NC(=O)N2CCCC2C(N)=O)sc1-c1ccnc(C(C)(C)C(F)(F)F)c1	77.6
Cn1nccc1Nc1nccc(-c2ccn(C(CO)c3ccc(Cl)c(F)c3)c(=O)c2)n1 (configuration not stated) + Cc1nc(NC(=O)N2CCCC2C(N)=O)sc1-c1ccnc(C(C)(C)C(F)(F)F)c1	105

Same assay, conditions: second compound 0.316 µM; first compound 0.1 µM; hits give low values; spheroids with HUVEC and MSC

Compound	viability, T/C [%]
C#Cc1c(F)ccc2cc(O)cc(-c3ncc4c(N5CC6CCC(C5)N6)nc(OCC56CCCN5CC(F)C6)nc4c3F)c12 (configuration not stated) + Cc1nc(NC(=O)N2CCCC2C(N)=O)sc1-c1ccnc(C(C)(C)C(F)(F)F)c1	84.7
C=CC(=O)N1CCN(c2nc(=O)n(-c3c(C)ccnc3C(C)C)c3nc(-c4c(O)cccc4F)c(F)cc23)C(C)C1 (configuration not stated) + Cc1nc(NC(=O)N2CCCC2C(N)=O)sc1-c1ccnc(C(C)(C)C(F)(F)F)c1	107
CC(Cn1ccc(-c2ccc(C#N)c(Cl)c2)n1)NC(=O)c1cc(C(C)O)[nH]n1 (configuration not stated) + Cc1nc(NC(=O)N2CCCC2C(N)=O)sc1-c1ccnc(C(C)(C)C(F)(F)F)c1	104
Cn1ncc(Cl)c1-c1cc(C(=O)NC(CN)Cc2cccc(F)c2)sc1Cl (configuration not stated) + Cc1nc(NC(=O)N2CCCC2C(N)=O)sc1-c1ccnc(C(C)(C)C(F)(F)F)c1	83.5
Cn1nccc1Nc1nccc(-c2ccn(C(CO)c3ccc(Cl)c(F)c3)c(=O)c2)n1 (configuration not stated) + Cc1nc(NC(=O)N2CCCC2C(N)=O)sc1-c1ccnc(C(C)(C)C(F)(F)F)c1	108

Same assay, conditions: second compound 0.316 µM; first compound 0.316 µM; hits give low values; spheroids with HUVEC and MSC

Compound	viability, T/C [%]
C#Cc1c(F)ccc2cc(O)cc(-c3ncc4c(N5CC6CCC(C5)N6)nc(OCC56CCCN5CC(F)C6)nc4c3F)c12 (configuration not stated) + Cc1nc(NC(=O)N2CCCC2C(N)=O)sc1-c1ccnc(C(C)(C)C(F)(F)F)c1	73.6
C=CC(=O)N1CCN(c2nc(=O)n(-c3c(C)ccnc3C(C)C)c3nc(-c4c(O)cccc4F)c(F)cc23)C(C)C1 (configuration not stated) + Cc1nc(NC(=O)N2CCCC2C(N)=O)sc1-c1ccnc(C(C)(C)C(F)(F)F)c1	96.4
CC(Cn1ccc(-c2ccc(C#N)c(Cl)c2)n1)NC(=O)c1cc(C(C)O)[nH]n1 (configuration not stated) + Cc1nc(NC(=O)N2CCCC2C(N)=O)sc1-c1ccnc(C(C)(C)C(F)(F)F)c1	103
Cn1ncc(Cl)c1-c1cc(C(=O)NC(CN)Cc2cccc(F)c2)sc1Cl (configuration not stated) + Cc1nc(NC(=O)N2CCCC2C(N)=O)sc1-c1ccnc(C(C)(C)C(F)(F)F)c1	73.4
Cn1nccc1Nc1nccc(-c2ccn(C(CO)c3ccc(Cl)c(F)c3)c(=O)c2)n1 (configuration not stated) + Cc1nc(NC(=O)N2CCCC2C(N)=O)sc1-c1ccnc(C(C)(C)C(F)(F)F)c1	87.2
